Earlier results, collected in patent publication US11702451B2, “Method for synthesizing amanitins” (Heidelberg Pharma Research GmbH, priority 2017, dated 2023).

Biological target: DNA-dependent RNA polymerase II (Homo sapiens, UniProt P24928)
Conditions: background statement, no method given; read-out: KD of the complex between amanitin and RNA-polymerase II

Q: For amanitin, which Kd is on record?
A: 3 nM
